Several values for one entry are separate records, joined by “and”; a condition that tells them apart may be missing. Equal entries are not always repeated. Entries after “also recorded” stand apart in the source; their conditions may differ. Ends that are not written are not given here.
What was measured:
[1] = test system: magnesium deficient erythrocytes; assay: Promotion of magnesium binding in magnesium depleted erythrocyte membranes (in vitro screen); type: cell-based, human; conditions: for Magnesium Binding: aged Mg-deficient human erythrocytes incubated in 5 mL medium, 37° C., three hours, peptide amount equimolar to 6 ugm Substance P, quadruplet mean (n) or duplicate values; for measurable binding of magnesium ions to the erythrocyte membrane (in words): uptake in excess of that with KRPG alone; for approximate ratios of binding activities: magnesium uptake in excess of KRPG alone, normal plasma = 1; for activity relative to Substance P in promoting magnesium binding / correcting the MgBD: equal molar amounts tested
Description: In order to identify those substances which promote binding of magnesium ion to plasma membranes (tightly bound magnesium ion) and that ameliorate or correct the magnesium binding defect, a deficit of membrane tightly bound magnesium was created experimentally in erythrocytes without the magnesium binding defect. Human erythrocytes were obtained from blood samples that had been drawn two days previously and kept for varying periods of time at room temperature, or at approximately 5° C. Preferred results were obtained with those samples in which either sodium citrate or sodium heparin was the anticoagulant. The length of time held and time held before moving to room temperature or 5° C is not believed to be critical. Although it was possible to create the MgBD in cells held as above, more reproducible results would be expected if fresh drawn blood were to be used.
The following procedure was employed to generate a deficit of plasma membrane tightly bound magnesium ion in the erythrocytes. Art recognized adaptations of this procedure can be used for generation of a deficit in other somatic cells, such as from urine or buccal cells. Samples of blood described above were kept at room temperature overnight and then pooled in a beaker placed in crushed ice and the blood was stirred slowly to collect any fibrin that may have formed. The blood was then centrifuged (600×g, 15 minutes) at 5° C. and the plasma layer removed by aspiration. Residual plasma was removed from the cells by suspending them twice in equal volumes of cold normal saline and then twice in equal volumes of cold Alsever's solution (trisodium citrate 32.5 mM, citric acid 2.7mM, D-glucose 114 mM, NaCl 137 mM, pH 6.1). Finally, the washed cells were suspended again in an equal volume of the same Alsever's solution to which approximately 1.25 mg/ml of sodium deoxycholate was added. This suspension was filtered through cheese cloth and kept at 4° C. with gently mixing once each day. Although the Alsever's plus sodium deoxycholate solution is a preferred example of a holding solution, any cell stabilizing buffer plus sodium deoxycholate may be utilized in the practice of the invention.
The concentration of magnesium ion tightly bound to the erythrocyte membranes was determined by using 5 mL portions of the approximately two day old blood sample and the stored erythrocyte suspension. After these portions were centrifuged as above and the supernatant fluids aspirated, the residues of cells were suspended four times in 15 mL portions of cold hemolyzing buffer (Tris Tris HCl 5 mM, sucrose 14 mM, pH 7.4) and centrifuged (15,000×g, 15 minutes). The supernatant fluids were removed by gentle aspiration. The decanting procedure was repeated as necessary to remove all of the dark red residue (Example 1). The penultimate residue was resuspended by gently pouring the hemolyzing buffer onto the residue and decanting the readily suspended cell membranes from the small, dark red, dense residue which adhered to the centrifuge tube. The final, nearly colorless residue of membranes was transferred and brought to a total volume of 25 mL in a volumetric flask using the hemolyzing buffer. These preparations of erythrocyte membranes were stored at 4° C. until the total protein contents were determined by the Bicinchoninic Acid procedure and the total magnesium contents determined by atomic absorption spectroscopy. From these values the concentrations of tightly bound magnesium in the cell membranes were expressed as nanograms of magnesium per 0.50 mg of membrane protein. This determination of the magnesium binding was repeated each day or so until the level of binding first ceased to decrease.
Preparations of aged erythrocytes in which the MgBD has been developed were used as soon as possible in incubations with normal blood plasma, and other magnesium containing fluids, in search of substances which could correct the MgBD (Example 7). […]

normotensive subjects = conditions: Qu and Stuesse, 1990; cited from earlier work
SS/Jr rats [2] = assay: Systolic blood pressure after i.v. tetrapeptide, tail-cuff method, hypertensive rats; type: in vivo, rat
Description: (§1) In this procedure the systolic blood pressure was measured in conscious animals by using the photoelectric, tail-cuff, compression method as follows. The animal was placed in an incubator at 40° for twenty minutes in order to elevate its body temperature. The cuff, which was placed around the tail, included sensor which provided the pressure signal which was recorded onto a chart. After the pre-injection pressure was recorded, the animal was immediately injected through the tail vein with 168 uL of a freshly prepared solution of the tetrapeptide (SEQ ID NO:2) in normal saline.
(§2) In the initial experiments, the blood pressure was recorded at 5, 10, 30, 60 and 300 minutes after the administration of the tetrapeptide. There was no further decrease in the blood pressure after 10 minutes and the blood pressure returned to the pre-injection level within 60 minutes. Therefore, in further experiments, the blood pressure of each animal was recorded 10 minutes after the injection of the tetrapeptide.

Sprague-Dawley rats [3] = assay: Systolic blood pressure after i.v. peptide, tail-cuff method, normotensive control rats; type: in vivo, rat
Description: as §1, §2

SS/Jr rats [4] = assay: Tightly bound magnesium in erythrocyte membranes after i.v. tetrapeptide, hypertensive rats; type: in vivo, rat; conditions: intravenous administration
Description: (§3) The rats were allowed to rest for one day and then one-half of the SS/Jr and one-half of the Sprague-Dawley rats were injected as above with 3.0 ugm/kg of the tetrapeptide (SEQ ID NO:2). All of the rats were sacrificed by decapitation 30 minutes later and the blood from each rat was collected in a centrifuge tube containing sufficient heparin to prevent clotting. The blood samples were centrifuged (1,000×g, 20 minutes) at 5° C. and the individual plasma layers were removed and frozen. The residues of erythrocytes were suspended three times in cold, normal saline and then were hemolyzed by the addition of 15 mL of cold hemolyzing buffer (10 mM Tris Tris HCl, pH 7.4). This buffer was then used in the isolation of the erythrocyte membranes from these hemolysates and in the determination of their total magnesium and protein contents as described above.

Sprague-Dawley rats [5] = assay: Tightly bound magnesium in erythrocyte membranes after i.v. tetrapeptide, normotensive control rats; type: in vivo, rat; conditions: intravenous administration
Description: as §3

SS/Jr rats [6] = assay: Plasma glucose (anthrone method) after i.v. tetrapeptide, SS/Jr rats; type: in vivo, rat; conditions: 3.0 ugm/kg i.v., 30 minutes
Description: as §3
(§4) The glucose concentrations in the reserved plasma samples were determined by the anthrone method (Rendina, 1971). The concentrations in the injected SS/Jr rats were not different from those of the SS/Jr rats which were not injected with the tetrapeptide. This was also the case with the Sprague-Dawley control rats. Thus, the values of the SS/Jr rats were combined and compared with the combined, control values of the Sprague-Dawley rats as follows: 149.2±7.5 (15) vs. 100.7±11.2 (4) mg/100 mL., P<0.01. […]

Sprague-Dawley rats [7] = assay: Plasma glucose (anthrone method) after i.v. tetrapeptide, Sprague-Dawley rats; type: in vivo, rat; conditions: 3.0 ugm/kg i.v., 30 minutes
Description: as §3, §4

[8] = test system: erythrocytes from essential hypertensive patients; assay: Remediation of magnesium binding defect in vitro, erythrocytes from essential hypertensive patients; type: cell-based, human; conditions: incubated for 3 hrs. at 37° C.
Description: The effect of the tetrapeptide (SEQ ID NO:2) and pentapeptide (SEQ ID NO:1) on the binding of magnesium by the erythrocyte membrane was ascertained by measuring the magnesium contents of ghosts after the erythrocytes from essential hypertensive patients and normal controls were incubated with one or both of the peptides. For this purpose, two 10 ml samples of heparinized blood from essential hypertensive subjects were utilized. After the plasma was separated from the erythrocytes, the erythrocytes were washed twice with 10 ml of cold erythrocyte wash and the peptides were then added to the erythrocytes from the hypertensive subjects and the mixtures were incubated for 3 hrs. at 37° C., chilled on ice and the erythrocyte ghosts were prepared and analyzed for magnesium and protein as described in Example 1.

measurable binding of magnesium ions to the erythrocyte membrane (in words) [1]	approximate ratios of binding activities [1]	binding of magnesium to erythrocyte membranes of hypertensive subjects after incubation (in words) [8]	Substance	Magnesium Binding [1]	activity relative to Substance P in promoting magnesium binding / correcting the MgBD [1]	effect on blood pressure of normotensive rats (in words) (Sprague-Dawley rats [3])	also measured
no measurable activity	–	–	9-11 Substance P: commercial preparation of amidated peptide derived from the C-terminal region of Substance P (Gly-Leu-Met-NH2; UniProt P20366 66-68, looked up, fragment) [reference compound]	546 Nanograms of magnesium per 0.50 mg of membrane protein and 510 Nanograms of magnesium per 0.50 mg of membrane protein	–	–	–
promoted measurable binding	~4.6	returned to normal	Phe-Gly-Leu-Met-NH2 (FGLM-NH2; listed as Homo sapiens) [tetrapeptide]	–	about four times as active as Substance P; also recorded: significantly more active than Substance P; also recorded: several fold more active than Substance P	unaffected; also recorded: had no influence; also recorded: did not affect the blood pressures; also recorded: had no effect on systolic blood pressure	Magnesium Binding ([1]; listed as 8-11 Substance P): 968 Nanograms of magnesium per 0.50 mg of membrane protein and 954 Nanograms of magnesium per 0.50 mg of membrane protein; effect on blood pressure of hypertensive rats (in words) (SS/Jr rats [2]; SS/Jr rats, intravenous administration): fallen to control values; also recorded: corrected; also recorded: reduced the hypertensive blood pressure of the SS/Jr rats to the normal blood pressure of their controls; also recorded: reduced its systolic blood pressure from an elevated value of 210 mm Hg to the control value; time for blood pressure to fall to control values / no further decrease (SS/Jr rats [2]; after i.v. injection): ≤ 10 min; time for blood pressure to return to the pre-injection level (SS/Jr rats [2]; after i.v. injection): ≤ 60 min; correction of the magnesium binding defect in erythrocytes (in words) (SS/Jr rats [4]): corrected; also recorded: corrects the magnesium binding defect; effect on erythrocyte magnesium binding of control rats (in words) (Sprague-Dawley rats [5]): unaffected; also recorded: had no influence; plasma glucose concentration, injected versus not injected (SS/Jr rats [6]): not different; plasma glucose concentration, injected versus not injected (Sprague-Dawley rats [7]): not different

Further lines, the substance ahead of its results:

Substance	measurable binding of magnesium ions to the erythrocyte membrane (in words) [1]	approximate ratios of binding activities [1]	binding of magnesium to erythrocyte membranes of hypertensive subjects after incubation (in words) [8]	Magnesium Binding [1]	activity relative to Substance P in promoting magnesium binding / correcting the MgBD [1]	effect on blood pressure of normotensive rats (in words) (Sprague-Dawley rats [3])	also measured
1-9 Substance P: commercial preparation of amidated peptide derived from the N-terminal region of Substance P (RPKPQQFFG-NH2; UniProt P20366 58-66, looked up, fragment) [reference compound]	no measurable activity	–	–	500 Nanograms of magnesium per 0.50 mg of membrane protein and 490 Nanograms of magnesium per 0.50 mg of membrane protein	–	–	–
Arg-Pro-Lys-Pro-Gln-Gln-Phe-Phe-Gly-Leu-Met-NH2 [Substance P, reference compound]	promoted measurable binding	~1.1	–	–	–	–	effect of intravenously injected Substance P on blood pressure (normotensive subjects): the reduction in blood pressure resulted in lower than normal values
Phe-Phe-Gly-Leu-Met-NH2 (FFGLM-NH2; listed as Homo sapiens) [pentapeptide]	promoted measurable binding	~3.7	returned to normal	–	about four times as active as Substance P; also recorded: significantly more active than Substance P; also recorded: several fold more active than Substance P	had no effect on systolic blood pressure	Magnesium Binding ([1]; listed as 7-11 Substance P): 886 Nanograms of magnesium per 0.50 mg of membrane protein and 866 Nanograms of magnesium per 0.50 mg of membrane protein

— patent publication US20040171093A1, “Methods for detecting deficient cellular membrane tightly bound magnesium for disease diagnoses” (priority 1999, published 2004)
